The target in one series is T1, human PDE5 (Homo sapiens, UniProt O76074).
T1 construct: from tissue; host or cells: human platelets from fresh donor blood (10,000 g supernatant of sonified platelets)
Kind of series: Inhibition of PDE5 activity (modified SPA test, human platelet lysate). It is filed as biochemical. As to conditions: PDE5-containing human platelet lysate, 0.5 μM cGMP substrate, 37° C. The procedure: As a source for human PDE5, platelets were used. For that purpose, 150 ml fresh blood from human donors anticoagulated with citrate [final concentration 0.3% (w/v)] was centrifuged at 200 g for 10 min to obtain the so-called platelet-rich-plasma (PRP) as a supernatant. 1/10 volume of ACD solution (85 mM Na3-citrate, 111 mM D-glucose, 71 mM citric acid, pH 4.4) was added to 9/10 volume of PRP. After centrifugation (1,400 g, 10 min) the cell pellet was resuspended in 3 ml homogenization buffer (NaCl 140 mM, KCl 3.8 mM, EGTA 1 mM, MgCl2 1 mM, Tris-HCl 20 mM, beta-mercaptoethanol 1 mM, pH 8.2) plus protease-inhibitor mix giving rise to the final concentrations of 0.5 mM Pefablock (Roche), 10 μM Leupeptin, 5 μM Trypsininhibitor, 2 mM Benzamidin and 10 μM Pepstatin A. The suspension was sonified and thereafter centrifuged for 15 min at 10,000 g. The resulting supernatant (platelet lysate) was used for enzymatic testings.
PDE5A1 activity is inhibited by the compounds of the invention in a modified SPA (scintillation proximity assay) test, supplied by Amersham Biosciences (see procedural instructions “phosphodiesterase [3H]cAMP SPA enzyme assay, code TRKQ 7090”), carried out in 96-well microtitre plates (MTP's). The test volume is 100 μl and contains 20 mM Tris buffer (pH 7.4), 0.1 mg of BSA (bovine serum albumin)/ml, 5 mM Mg^2+, 1 μM motapizone, 10 nM PDE2 inhibitor BAY-60-7550, 0.5 μM cGMP (including about 50,000 cpm of [3H]cGMP as a tracer), 1 μl of the respective compound dilution in dimethylsulfoxide (DMSO) and sufficient PDE5-containing platelet lysat (10,000×g supernatant, see above) to ensure that 10-20 wt % of the cGMP is converted under the said experimental conditions. […] After a preincubation of 5 min at 37° C., the reaction was started by adding the substrate (cGMP) and the assay was incubated for a further 15 min; after that, it was stopped by adding SPA beads (50 μl). In accordance with the manufacturer's instructions, the SPA beads had previously been resuspended in water, but were then diluted 1:3 (v/v) in water; the diluted solution also contains 3 mM 8-methoxymethyl-3-isobutyl-1-methylxanthine (IBMX) to ensure a complete PDE activity stop. After the beads have been sedimented (>30 min), the MTP's are analyzed in commercially available luminescence detection devices. The corresponding IC50 values of the compounds for the inhibition of PDE activity are determined from the concentration-effect curves by means of non-linear regression.

Structures can show the parent of a compound that is named as a salt.

From US20100120730A1, “6-BENZYL-2,3,4,7-TETRAHYDRO-INDOLO [2,3-C] QUINOLINE COMPOUNDS USEFUL AS PDE5 INHIBITORS” (NYCOMED GmbH, priority 2007, published 2010) come the findings set out here.

In the case of `CC(=O)Nc1ccc(Cc2nc3c(c4c2[nH]c2ccccc24)C(=O)CC(C)(C)C3)cc1` [Example 44, N-[4-(3,3-Dimethyl-1-oxo-2,3,4,7-tetrahydro-1H-indolo[2,3-c]quinolin-6-ylmethyl)-phenyl]-acetamide], the melting point lay in the range of 153 to 154 °C. At human PDE5, this compound gave an IC50 of 0.0166 µM.

In turn, `COc1ccc(Cc2nc3c(c4c2[nH]c2ccccc24)C(=O)CC(C)(C)C3)c(F)c1` [Example 27, 6-(2-Fluoro-4-methoxy-benzyl)-3,3-dimethyl-2,3,4,7-tetrahydro-indolo[2,3-c]quinolin-1-one] yielded a melting point of 138 to 140 °C. Further, the IC50 against human PDE5 is 0.00224 µM.

Consider `COc1ccc(Cc2nc3c(c4c2[nH]c2ccccc24)C(O)CC(C)(C)C3)c(F)c1F` (stereo not shown) [Example 74, 6-(2,3-Difluoro-4-methoxy-benzyl)-3,3-dimethyl-2,3,4,7-tetrahydro-1H-indolo[2,3-c]quinolin-1-ol], for which the melting point lay in the range of 197 to 198 °C. The compound also gave an IC50 at human PDE5 of 0.000324 µM.

Compound `CC(C)c1ccc(Cc2nc3c(c4c2[nH]c2ccccc24)C(=O)CC(C)(C)C3)cc1` [Example 14, 6-(4-Isopropyl-benzyl)-3,3-dimethyl-2,3,4,7-tetrahydro-indolo[2,3-c]quinolin-1-one] showed a melting point of 153 to 155 °C. In addition, 0.347 µM corresponded to half-maximal inhibition against human PDE5 (IC50).

For `CC(C)c1ccc(Cc2nc3c(c4c2[nH]c2ccccc24)C(O)CC(C)(C)C3)cc1` (stereo not shown) [Example 58, 6-(4-Isopropyl-benzyl)-3,3-dimethyl-2,3,4,7-tetrahydro-1H-indolo[2,3-c]quinolin-1-ol], the melting point was in the range of 112 to 114 °C. This compound also showed an IC50 at human PDE5 of 0.148 µM.

With `CC1(C)CC(=O)c2c(nc(Cc3cc(F)cc(F)c3)c3[nH]c4ccccc4c23)C1` [Example 22, 6-(3,5-Difluoro-benzyl)-3,3-dimethyl-2,3,4,7-tetrahydro-indolo[2,3-c]quinolin-1-one], the melting point fell in the range of 204 to 208 °C. At human PDE5, this compound showed an IC50 of 0.0155 µM.

In turn, `CC1(C)Cc2nc(Cc3cccc(N)c3)c3[nH]c4ccccc4c3c2C(O)C1` (stereo not shown) [Example 57, 6-(3-Amino-benzyl)-3,3-dimethyl-2,3,4,7-tetrahydro-1H-indolo[2,3-c]quinolin-1-ol] gave a melting point of 225 to 227 °C. Also, at human PDE5, the half-inhibitory concentration (IC50) was 0.00407 µM.

Take `CC1(C)Cc2nc(Cc3cccc(Br)c3)c3[nH]c4ccccc4c3c2C(O)C1` (stereo not shown) [Example 62, 6-(3-Bromo-benzyl)-3,3-dimethyl-2,3,4,7-tetrahydro-1H-indolo[2,3-c]quinolin-1-ol]: the melting point fell in the range of 118 to 125 °C. At human PDE5, this compound had an IC50 of 0.0501 µM.

As to `CC1(C)Cc2nc(Cc3cc(F)cc(F)c3)c3[nH]c4ccccc4c3c2C(O)C1` (stereo not shown) [Example 67, 6-(3,5-Difluoro-benzyl)-3,3-dimethyl-2,3,4,7-tetrahydro-1H-indolo[2,3-c]quinolin-1-ol], the melting point was 117 to 123 °C. The IC50 at human PDE5 was 0.00794 µM.

As to `CC1(C)CC(=O)c2c(nc(Cc3ccc4c(c3)OCO4)c3[nH]c4ccccc4c23)C1` [Example 37, 6-Benzo[1,3]dioxol-5-ylmethyl-3,3-dimethyl-2,3,4,7-tetrahydro-indolo[2,3-c]quinolin-1-one], the melting point is 193 to 196 °C (dec.). The compound also had an IC50 against human PDE5 of 0.0049 µM.

`O=C1CCCc2nc(Cc3ccc([N+](=O)[O-])cc3)c3[nH]c4ccccc4c3c21` [Example 26, 6-(4-Nitro-benzyl)-2,3,4,7-tetrahydro-indolo[2,3-c]quinolin-1-one]: the melting point was in the range of 138 to 140 °C. At human PDE5, this compound showed an IC50 of 0.355 µM.

Take `COc1ccc(Cc2nc3c(c4c2[nH]c2ccccc24)[C@@H](O)CC(C)(C)C3)cc1` [Example 81, (S)-6-(4-Methoxy-benzyl)-3,3-dimethyl-2,3,4,7-tetrahydro-1H-indolo[2,3-c]quinolin-1-ol]: the melting point fell in the range of 118 to 120 °C. On human PDE5, it took 0.001 µM to reach half-maximal inhibition (IC50).

As to `COc1ccc(Cc2nc3c(c4c2[nH]c2ccccc24)[C@@H](O)CC(C)(C)C3)cc1F` [Example 79, (S)-6-(3-Fluoro-4-methoxy-benzyl)-3,3-dimethyl-2,3,4,7-tetrahydro-1H-indolo[2,3-c]quinolin-1-ol], the melting point lay within 164 to 166 °C. On human PDE5, this compound had an IC50 of 0.000794 µM.

In turn, `CC1(C)CC(=O)c2c(nc(Cc3ccc(O)c(F)c3)c3[nH]c4ccccc4c23)C1` [Example 38, 6-(3-Fluoro-4-hydroxy-benzyl)-3,3-dimethyl-2,3,4,7-tetrahydro-indolo[2,3-c]quinolin-1-one] returned a melting point of 216 to 218 °C. The compound also had an IC50 against human PDE5 of 0.000631 µM.

The compound `CC(=O)Nc1ccc(Cc2nc3c(c4c2[nH]c2ccccc24)C(O)CCC3)cc1` (stereo not shown) [Example 69, N-[4-(1-Hydroxy-2,3,4,7-tetrahydro-1H-indolo[2,3-c]quinolin-6-ylmethyl)-phenyl]-acetamide] registered a melting point of 195 to 197 °C. Further, the IC50 on human PDE5 was 0.302 µM.

The compound `COc1ccc(Cc2c3[nH]c4ccccc4c3c3c([n+]2[O-])CC(C)(C)CC3O)cc1` (stereo not shown) [Example 52, 6-(4-Methoxy-benzyl)-3,3-dimethyl-5-oxy-2,3,4,7-tetrahydro-1H-indolo[2,3-c]quinolin-1-ol] registered a melting point of 185 °C. The IC50 on human PDE5 was 0.0204 µM.

As to `CC1(C)CC(=O)c2c(nc(Cc3cc(F)cc(Cl)c3)c3[nH]c4ccccc4c23)C1` [Example 36, 6-(3-Chloro-5-fluoro-benzyl)-3,3-dimethyl-2,3,4,7-tetrahydro-indolo[2,3-c]quinolin-1-one], the melting point lay in the range of 219 to 221 °C. Also, the IC50 at human PDE5 is 0.234 µM.

With `CC1(C)CC(=O)c2c(nc(Cc3cccc(Br)c3)c3[nH]c4ccccc4c23)C1` [Example 21, 6-(3-Bromo-benzyl)-3,3-dimethyl-2,3,4,7-tetrahydro-indolo[2,3-c]quinolin-1-one], the melting point lay in the range of 215 to 219 °C. The compound also showed an IC50 at human PDE5 of 0.126 µM.

As for `OC1CCCc2nc(Cc3ccc4c(c3)OCO4)c3[nH]c4ccccc4c3c21` (stereo not shown) [Example 61, 6-Benzo[1,3]dioxol-5-ylmethyl-2,3,4,7-tetrahydro-1H-indolo[2,3-c]quinolin-1-ol], the melting point lay within 120 to 123 °C. At human PDE5, inhibition was half-maximal at 0.00724 µM (IC50).

Turning to `CC1(C)Cc2nc(Cc3cc(F)cc(F)c3)c3[nH]c4ccccc4c3c2[C@@H](O)C1` [Example 86, (S)-6-(3,5-Difluoro-benzyl)-3,3-dimethyl-2,3,4,7-tetrahydro-1H-indolo[2,3-c]quinolin-1-ol], the melting point lay within 130 to 131 °C. For the same compound, the IC50 against human PDE5 was 0.00316 µM.

The compound `COc1ccc(Cc2nc3c(c4c2[nH]c2ccccc24)C(=O)CCC3)cc1F` [Example 29, 6-(3-Fluoro-4-methoxy-benzyl)-2,3,4,7-tetrahydro-indolo[2,3-c]quinolin-1-one] returned a melting point of 228 to 230 °C. Also, at human PDE5, the IC50 is 0.00126 µM.

The compound `CC1(C)Cc2nc(Cc3cccc([N+](=O)[O-])c3)c3[nH]c4ccccc4c3c2C(O)C1` (stereo not shown) [Example 56, 3,3-Dimethyl-6-(3-nitro-benzyl)-2,3,4,7-tetrahydro-1H-indolo[2,3-c]quinolin-1-ol] had a melting point of 228 to 230 °C. The compound also had an IC50 on human PDE5 of 0.191 µM.

`CC1(C)Cc2nc(Cc3ccc(F)c(F)c3)c3[nH]c4ccccc4c3c2C(O)C1` (stereo not shown) [Example 66, 6-(3,4-Difluoro-benzyl)-3,3-dimethyl-2,3,4,7-tetrahydro-1H-indolo[2,3-c]quinolin-1-ol] came in with a melting point of 121 to 128 °C. On human PDE5, this compound showed an IC50 of 0.0166 µM.

`CC1(C)Cc2nc(Cc3ccc4c(c3)OCO4)c3[nH]c4ccccc4c3c2C(O)C1` (stereo not shown) (as salt: HCl) [Example 59, 6-Benzo[1,3]dioxol-5-ylmethyl-3,3-dimethyl-2,3,4,7-tetrahydro-1H-indolo[2,3-c]quinolin-1-ol] displayed a melting point of 114 to 119 °C.

`COc1c(F)cc(Cc2nc3c(c4c2[nH]c2ccccc24)[C@@H](O)CC(C)(C)C3)cc1F` [Example 89, (S)-6-(3,5-Difluoro-4-methoxy-benzyl)-3,3-dimethyl-2,3,4,7-tetrahydro-1H-indolo[2,3-c]quinolin-1-ol] had a melting point of 161 to 162 °C.

For the compound `CC1(C)Cc2nc(Cc3ccc(O)c(F)c3)c3[nH]c4ccccc4c3c2[C@@H](O)C1` [Example 88, (S)-6-(3-Fluoro-4-hydroxy-benzyl)-3,3-dimethyl-2,3,4,7-tetrahydro-1H-indolo[2,3-c]quinolin-1-ol], the melting point fell in the range of 233 to 234 °C.

By IC50 is commonly meant the point on the concentration scale where inhibition reaches its midpoint. Low readings indicate greater potency in that assay, high ones weaker potency in that assay. The melting point is the temperature, or range, at which the solid turns liquid.
